Patent publication US20250032425A1, “FIRST IN CLASS USE OF ESTROGEN RECEPTOR BETA AGONISTS IN TREATING ANGELMAN SYNDROME AND RELEVANT AUTISM SPECTRUM DISORDERS” (BROWN UNIVERSITY, priority 2023, published 2025)
“Also recorded” adds a separate entry of the source.

Tested on: untreated iOPCs
Experiment: Baseline Ki67 expression in untreated iOPCs (normal UBE3A levels)
Assay type: cell-based, human
Details: 10 μM, 24 hours
Description: FIG. 19A: Schematic illustrating the process of generating iPSC-derived oligodendrocyte lineage cells using a refined protocol from Vulakh and Yang, […] (Vulakh, G., and Yang, X. (2023). Characterizing the Neuron-Glial Interactions by the Co-cultures of Human iPSC-Derived Oligodendroglia and Neurons. Methods Mol. Biol. 2683. 10.1007/978-1-0716-3287-1_9). The human iPSCs employed in this study were the extensively characterized KOLF2.J1 control reference line, sourced from the INDI (Ramos, D. M., Skarnes, W. C., Singleton, A. B., Cookson, M. R., and Ward, M. E. (2021). Tackling neurodegenerative diseases with genomic engineering: A new stem cell initiative from the NIH. Neuron 109, 1080-1083. 10.1016/j.neuron.2021.03.022). Initially, iPSCs are converted into neural precursor cells (iNPCs, marked by Nestin) through SMAD inhibition in the first week. These iNPCs are then induced into oligodendrocyte precursor cells (iOPCs, marked by PDGFRa and A2B5) by the second week. […] FIG. 19H: Baseline effects of AC-186 on OPC proliferation analyzed by Ki67 expression in untreated iOPCs exposed to vehicle or drugs (AC-186 or DPN; 10 μM, 24 hours), with densitometric signals of immunoblotting normalized to GAPDH. […]

Oc1ccc(C2(c3ccccc3F)CCC(F)(F)CC2)cc1 [AC-186]
Ki67 expression, baseline: neither AC-186 nor DPN affected; also recorded: No significant changes

N#CC(Cc1ccc(O)cc1)c1ccc(O)cc1 (centres unmarked) [DPN, diarylpropionitrile, reference compound]
Ki67 expression, baseline: neither AC-186 nor DPN affected; also recorded: No significant changes
